# Assay results reported in ChEMBL document CHEMBL1129168, “Synthesis and antiviral activity of new phosphonobutoxypurines” (Bioorg Med Chem Lett, 1996).
# Assays:
# Human alphaherpesvirus 1 = test: Compound was tested in vitro for antiviral activity against Herpes simplex virus-Type 1 in SC 16 cells.; format: functional, organism-based
# Human alphaherpesvirus 2 = test: Compound was tested in vitro for antiviral activity against Herpes simplex virus-Type 2 in MS cells.; format: functional, organism-based; conditions: Human alphaherpesvirus 2, MS
# MRC5 = test: Compound was tested in vitro for antiviral activity against Herpes viruses(HSV-2, VZV) in human fibroblast (MRC-5) cells.; format: functional, cell-based
# Homo sapiens = species on record: Homo sapiens; test: Compound was tested for its activity against HIV replication in human peripheral blood lymphocytes (PBLs) using MTT-based cytotoxicity assay.; format: functional, organism-based
# Human alphaherpesvirus 3 = test: Compound was tested in vitro for antiviral activity against Varicella zoster virus (VZV) in ellen cells.; format: functional, organism-based
# D34 = test: Compound was tested in vitro for antiviral activity against Human immunodeficiency virus type-1 in D34 cells.; format: functional, cell-based
SMILES,IC50 (Human alphaherpesvirus 1),IC50 (Human alphaherpesvirus 2),IC50 (MRC5),IC50 (Homo sapiens),IC50 (Human alphaherpesvirus 3),IC50 (D34)
Nc1nc(O)c2ncn(OCCCCP(=O)(O)O)c2n1,> 100 µg/mL,23 µg/mL,1.6 µg/mL,> 100 µM,6 µg/mL,0.01 µM
Nc1ncnc2c1ncn2OCC(CO)CCP(=O)(O)O (stereo unspecified),> 100 µg/mL,> 100 µg/mL,> 100 µg/mL,–,> 100 µg/mL,> 100 µM
Nc1nc(N)c2ncn(OCC(CO)CCP(=O)(O)O)c2n1 (stereo unspecified),> 100 µg/mL,> 100 µg/mL,78 µg/mL,–,17 µg/mL,–
Nc1ncnc2c1ncn2OCCCCP(=O)(O)O,> 100 µg/mL,> 100 µg/mL,58 µg/mL,–,> 100 µg/mL,> 100 µM
Nc1nc(N)c2ncn(OCCCCP(=O)(O)O)c2n1,> 100 µg/mL,> 100 µg/mL,26 µg/mL,> 100 µM,17 µg/mL,1 µM
Nc1nc(O)c2ncn(OCC(CO)CCP(=O)(O)O)c2n1 (stereo unspecified),> 100 µg/mL,> 100 µg/mL,8.8 µg/mL,–,5 µg/mL,> 100 µM
